Reference: patent publication US20220002279A1, “NOVEL IMIDAZOLE DERIVATIVE” (priority 2018, published 2022)
In brackets after ≈: the same amount, converted by molar mass.

Tests used:
[1] = system: Pseudomonas aeruginosa strain ATCC27853; experiment: Antimicrobial activity, MIC by broth microdilution; format: cell-based; details: ATCC27853, 18 h, cation-adjusted Mueller-Hinton broth, about 5×10^5 CFU/mL, 35° C., about 18 hours, read-out: MIC Pseudomonas aeruginosa ATCC27853
Method in brief: (§1)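 MIC read by eye as the lowest drug level lacking visible growth after roughly 18 h at 35° C. Cells from heart infusion agar, set to McFarland 0.5 and diluted, were inoculated at about 5×10^5 CFU/mL into cation-adjusted Mueller-Hinton broth with compound, per adapted CLSI microdilution.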

[2] = system: Klebsiella pneumoniae strain ATCC13883; experiment: Antimicrobial activity, MIC by broth microdilution; format: cell-based; details: ATCC13883, cation-adjusted Mueller-Hinton broth, about 5×10^5 CFU/mL, 35° C., about 18 hours, read-out: MIC Klebsiella pneumoniae ATCC13883
Method in brief: as §1

[3] = system: Escherichia coli strain ATCC25922; experiment: Antimicrobial activity, MIC by broth microdilution; format: cell-based; details: ATCC25922, 18 h, cation-adjusted Mueller-Hinton broth, about 5×10^5 CFU/mL, 35° C., about 18 hours, read-out: MIC Escherichia coli ATCC25922
Method in brief: as §1

[4] = target: T1, Escherichia coli LpxC enzyme (Escherichia coli, UniProt P0A725); experiment: Inhibitory activity on Escherichia coli LpxC enzyme (fluorescamine method); format: biochemical; details: fluorescamine detection; 3.1 nmol/L enzyme, 20 μmol/L substrate, pH 6.5, 120 min; read-out: IC50 (inhibitory activity on Escherichia coli LpxC enzyme, Fluoresamine method)
T1 construct: made in house; host or cells: Escherichia coli
T1 sequence (P0A725 1-305): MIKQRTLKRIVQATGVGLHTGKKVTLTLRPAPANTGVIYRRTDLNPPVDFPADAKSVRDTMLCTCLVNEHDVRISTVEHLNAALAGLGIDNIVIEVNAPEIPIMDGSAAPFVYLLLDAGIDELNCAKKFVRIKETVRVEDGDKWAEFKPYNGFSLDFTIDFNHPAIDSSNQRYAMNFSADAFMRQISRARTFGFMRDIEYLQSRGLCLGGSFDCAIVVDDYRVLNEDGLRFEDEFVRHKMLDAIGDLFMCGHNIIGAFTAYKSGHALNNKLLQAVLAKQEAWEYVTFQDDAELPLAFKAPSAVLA
Method in brief: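 LpxC reacted with UDP-3-O-(R-3-hydroxymyristoyl)-N-acetylglucosamine; product amine quantified after fluorescamine stop and pH 8.0 phosphate buffer addition, at 390 nm/495 nm. Inhibition curve built from a range of test compound concentrations.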

[5] = target: T2, Pseudomonas aeruginosa LpxC enzyme (Pseudomonas aeruginosa, UniProt P47205); experiment: Inhibitory activity on Pseudomonas aeruginosa LpxC enzyme (fluorescamine method); format: biochemical; details: fluorescamine detection; 3.6 nmol/L enzyme, 20 μmol/L substrate, pH 8.0, 60 min
T2 construct: made in house; host or cells: Escherichia coli
T2 sequence (P47205 1-303): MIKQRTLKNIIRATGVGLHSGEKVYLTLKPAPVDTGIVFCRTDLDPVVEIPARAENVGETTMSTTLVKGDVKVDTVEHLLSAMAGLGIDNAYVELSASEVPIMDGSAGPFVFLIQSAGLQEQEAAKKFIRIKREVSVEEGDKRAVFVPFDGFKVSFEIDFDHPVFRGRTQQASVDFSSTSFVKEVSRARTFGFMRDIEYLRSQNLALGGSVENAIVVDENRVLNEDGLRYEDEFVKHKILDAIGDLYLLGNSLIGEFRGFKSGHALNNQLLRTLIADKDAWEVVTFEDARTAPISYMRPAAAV
Excerpt: Test Example 1 Evaluation of the Inhibitory Activity on Pseudomonas aeruginosa LpxC Enzyme (Fluoresamine Method)
To assay the activity of Pseudomonas aeruginosa LpxC enzyme, LpxC was reacted with its substrate, UDP-3-O-(R-3-hydroxydecanoyl)-N-acetylglucosamine, and the amount of the reaction product was quantified by the amino groups present in the product.
Specifically, to 3.6 nmol/L Pseudomonas aeruginosa LpxC enzyme (as acquired by preparing chromosomal DNA from Pseudomonas aeruginosa, obtaining the Pseudomonas aeruginosa LpxC genes by PCR (polymerase chain reaction) using LpxC specific primer, and incorporating the genes into a vector, followed by expression using Escherichia coli), 20 μmol/L UDP-3-O-(R-3-hydroxydecanoyl)-N-acetylglucosamine (Carbosynth) was added, and the mixture was incubated at room temperature for 60 minutes. This reaction was performed in a 40 mmol/L-HEPES buffer solution (pH 8.0) containing 0.02% Brij 35 and 25 nmol/L-zinc chloride. The reaction was terminated by the addition of 1.0 mg/mL-fluorescamine dissolved in a solvent obtained by mixing an equal amount of acetonitrile and dimethylformamide with the reaction mixture, and then, a 0.2 mol/L-sodium phosphate buffer solution (pH 8.0) was added thereto, and the amount of the reaction product was detected at an excitation wavelength/fluorescence wavelength=390 nm/495 nm. An inhibition curve was obtained by performing the aforementioned reaction in the presence of various concentrations of test compounds. From this inhibition curve, the concentration of test compound at which the amount of the reaction product was suppressed by 50% (IC50 value) was determined, which was used as an index for the inhibitory activity on Pseudomonas aeruginosa LpxC enzyme.

SMILES | MIC [1] [µg/mL] | MIC [2] [µg/mL] | MIC [3] [µg/mL] | IC50 [4] [nM] | IC50 [5] [nM]
C[C@H](O)c1nccn1Cc1cc(-c2ccc(C#C[C@@H]3[C@H]4CN(C[C@H](O)CO)C[C@@H]34)cc2)on1 [Compound 11, (2S)-3-[(1R,5S,6R)-6-({4-[3-({2-[(1S)-1-Hydroxyethyl]-1H-imidazol-1-yl}methyl)-1,2-oxazol-5-yl]phenyl}ethynyl)-3-azabicyclo[3.1.0]hexan-3-yl]propan-1,2-diol] | 8 (≈ 17.8 µM) | 2 (≈ 4.46 µM) | 1 (≈ 2.23 µM) | 102 | 3.78
C[C@H](O)c1nccn1Cc1cc(-c2ccc(C#CC3CN(C[C@H](O)CO)C3)cc2)on1 [Compound 13] | 32 (≈ 75.7 µM) | 16 (≈ 37.9 µM) | – | 651 | 21.9
C[C@H](O)c1nccn1[C@H](CO)c1cc(-c2ccc(C#CCCCO)cc2)on1 [Compound 16, 5-(4-{3-[(1S)-2-Hydroxy-1-{2-[(1S)-1-hydroxyethyl]-1H-imidazol-1-yl}ethyl]-1,2-oxazol-5-yl}phenyl)pent-4-yn-1-ol] | 16 (≈ 41.9 µM) | 4 (≈ 10.5 µM) | – | – | 2.6
C[C@H](O)c1nccn1Cc1cc(-c2ccc(C#CCCCO)cc2)on1 [Compound 1, 5-{4-[3-({2-[(1S)-1-Hydroxyethyl]-1H-imidazol-1-yl}methyl)-1,2-oxazol-5-yl]phenyl}pent-4-yn-1-ol] | 64 (≈ 182 µM) | 2 (≈ 5.69 µM) | 1 (≈ 2.85 µM) | 51 | 13.2
C[C@H](O)c1nccn1Cc1cc(-c2c(F)cc(C#CCCCO)cc2F)on1 [Compound 14, 5-{3,5-Difluoro-4-[3-({2-[(1S)-1-hydroxyethyl]-1H-imidazol-1-yl}methyl)-1,2-oxazol-5-yl]phenyl}pent-4-yn-1-ol] | 64 (≈ 165 µM) | 8 (≈ 20.7 µM) | – | – | 15.4
C[C@H](O)c1nccn1Cc1cc(-c2ccc(C#C[C@H]3C[C@@H]3[C@@H](O)CN)cc2)on1 [Compound 15, (R)-2-Amino-1-((1 S,2S)-2-((4-(3-((2-((S)-1-hydroxyethyl)-1H-imidazol-1-yl)methyl)isoxazol-5-yl)phenyl)ethynyl)cyclopropyl)ethanol] | 16 (≈ 40.8 µM) | 64 (≈ 163 µM) | – | – | 8.4
C[C@H](O)c1nccn1Cc1cc(-c2ccc(C#CCCCO)c(F)c2)on1 [Compound 2, 5-{2-fluoro-4-[3-({2-[(1S)-1-hydroxyethyl]-1H-imidazol-1-yl}methyl)-1,2-oxazol-5-yl]phenyl} pent-4-yn-1-ol] | 64 (≈ 173 µM) | 2 (≈ 5.41 µM) | 1 (≈ 2.71 µM) | 16.9 | 6.92
C[C@H](O)c1nccn1Cc1cc(-c2ccc(C#CC3(N)CC3)cc2)on1 [Compound 4, (1S)-1-{1-[(5-{4-[(1-Aminocyclopropyl)ethynyl]phenyl}-1,2-oxazol-3-yl)methyl]-1H-imidazol-2-yl}ethan-1-ol] | 64 (≈ 184 µM) | 1 (≈ 2.87 µM) | 0.5 (≈ 1.44 µM) | – | 16.7
C[C@H](O)c1nccn1Cc1cc(-c2ccc(C#CC3CC3N)cc2)on1 (stereo in doubt) [Compound 9, (1S)-1-{1-[(5-(4-[(trans-2-aminocyclopropyl)ethynyl]phenyl}-1,2-oxazol-3-yl)methyl]-1H-imidazol-2-yl}ethan-1-ol] | 16 (≈ 45.9 µM) | 4 (≈ 11.5 µM) | – | 183 | 22.3
C[C@H](O)c1nccn1Cc1cc(-c2ccc(C#CC3CN(C)C3)cc2)on1 [Compound 12, (1S)-1-{1-[(5-{4-[(1-Methylazetidin-3-yl)ethynyl]phenyl}-1,2-oxazol-3-yl)methyl]-1H-imidazol-2-yl}ethan-1-ol] | 32 (≈ 88.3 µM) | 16 (≈ 44.1 µM) | – | – | 46
C[C@H](O)c1nccn1Cc1cc(-c2ccc(C#C[C@@H]3[C@H]4CN(CCO)C[C@@H]34)cc2)on1 [Compound 19, (1S)-1-(1-{[5-(4-{[(1R,5S,6s)-3-(2-Hydroxyethyl)-3-azabicyclo[3.1.0]hexan-6-yl]ethynyl}phenyl)-1,2-oxazol-3-yl]methyl}-1H-imidazol-2-yl)ethan-1-ol] | 8 (≈ 19.1 µM) | 1 (≈ 2.39 µM) | 0.5 (≈ 1.19 µM) | 123 | 2.03
Cc1cc(C#CCCCO)ccc1-c1cc(Cn2ccnc2[C@H](C)O)no1 [Compound 5, 5-{4-[3-({2-[(1S)-1-hydroxyethyl]-1H-imidazol-1-yl}methyl)-1,2-oxazol-5-yl]-3-methylphenyl} pent-4-yn-1-ol] | > 64 | 16 (≈ 43.8 µM) | – | – | 132
C[C@H](O)c1nccn1Cc1cc(-c2ccc(C#C[C@@H]3[C@H]4CNC[C@@H]34)cc2)on1 [Compound 10, (1S)-1-(1-{[5-(4-{[(1R,5S,6s)-3-Azabicyclo[3.1.0]hexan-6-yl]ethynyl}phenyl)-1,2-oxazol-3-yl]methyl}-1H-imidazol-2-yl)ethan-1-ol] | 8 (≈ 21.4 µM) | – | – | 123 | 14.3
C[C@H](O)c1nccn1Cc1cc(-c2ccc(C#C[C@@H]3[C@H]4CN(S(N)(=O)=O)C[C@@H]34)cc2)on1.Cl [Compound 81, (1R,5S,6s)-6-((4-[3-({2-[(1S)-1-Hydroxyethyl]-1H-imidazol-1-yl}methyl)-1,2-oxazol-5-yl]phenyl}ethynyl)-3-azabicyclo[3.1.0]hexane-3-sulfonamide hydrochloride] | > 4 | 1 | 0.5 | 69.6 | –
C[C@H](O)c1nccn1Cc1cc(-c2ccc(C#C[C@@H]3[C@H]4CN(CCN)C[C@@H]34)cc2)on1 [Compound 122, (1S)-1-(1-{[5-(4-{[(1R,5S,6s)-3-(2-aminoethyl)-3-azabicyclo[3.1.0]hexan-6-yl]ethynyl}phenyl)-1,2-oxazol-3-yl]methyl}-1H-imidazol-2-yl)ethan-1-ol] | 4 (≈ 9.58 µM) | 4 (≈ 9.58 µM) | 4 (≈ 9.58 µM) | 84.6 | –
C[C@H](O)c1nccn1Cc1cc(-c2ccc(C#CCCO)cc2)on1 [Compound 6, 4-{4-[3-({2-[(1S)-1-hydroxyethyl]-1H-imidazol-1-yl}methyl)-1,2-oxazol-5-yl]phenyl}but-3-yn-1-ol] | 64 (≈ 190 µM) | 4 (≈ 11.9 µM) | – | – | 22.6
COCCN1CC(C)(C#Cc2ccc(-c3cc(Cn4ccnc4[C@H](C)O)no3)cc2)C1 [Compound 41, (1S)-1-(1-{[5-(4-{[l-(2-methoxyethyl)-3-methylazetidin-3-yl]ethynyl}phenyl)-1,2-oxazol-3-yl]methyl}-1H-imidazol-2-yl)ethan-1-ol] | > 128 | 4 (≈ 9.51 µM) | 2 (≈ 4.76 µM) | 231 | –
C[C@H](O)c1nccn1Cc1cc(-c2ccc(C#CC3CC(NC4CC4)C3)cc2)on1 (stereo partly drawn) [Compound 98, (1S)-1-(1-{[5-(4-{[3-(cyclopropylamino)cyclobutyl]ethynyl}phenyl)-1,2-oxazol-3-yl]methyl}-1H-imidazol-2-yl)ethan-1-ol] | 16 (≈ 39.8 µM) | 0.5 (≈ 1.24 µM) | 0.25 (≈ 0.621 µM) | 51.4 | –
